Measurements reported in patent US4303640A, “Oil-in-water organophosphorus insecticidal emulsion” (priority 1979, dated 1981).
Values after ≈ are worked out from the molar mass of the structure shown.

What was measured:
physchem = conditions: water
[1] = size of emulsified particles of the active ingredient (microscope); type: physicochemical; conditions: oil-in-water emulsion, as prepared
Experimental: A brief description of the method of producing the oil-in-water insecticidal emulsion of this invention will be given below. First, an insecticidally active liquid ingredient of the organophosphorus compound is added to a 2 to 20 wt% aqueous solution of polyvinyl alcohol or gum arabic, and a conventonal stirrer such as a T.K. Homomixer (a homogenizer manufactured by Tokushu Kika Kogyo Co., Ltd.) or a Shinagawa All-Purpose Mixer (a mixer manufactured by San-Ei-Seisakusho, Ltd.) is used to disperse the particles of the active ingredient (A.I.), generally at ambient temperature or, if necessary, at an elevated temperature (about 40° to 80° C.). The size of the emulsified particles of the active ingredient can be varied wihtin the range of from about 1 to 200μ depending upon the stirring force or the content of polyvinyl alcohol or gum arabic. A microscope is used to check the size of the emulsified particles of the active ingredient. Finally, for the purpose of preventing settling of the emulsified particles and improving the dispersion stability, an aqueous solution of a thickener is added to the emulsion in a suitable amount. The resulting oil-in-water insecticidal emulsion remains stable for an extended period. […]

Compound	solubility (physchem) [µg/mL]	water-solubility at 10° C.	Particle Size of emulsified active ingredient [1] [μ]
COP(=O)(Cc1cccc(C#N)c1)OC	~6000 (≈ 26600 µM)	ca. 6,000 ppm	–
COP(=S)(OC)Oc1ccc([N+](=O)[O-])c(C)c1 [Compound (1), O,O-dimethyl O-(3-methyl-4-nitrophenyl)phosphorothioate]	5 (≈ 18 µM)	–	1 to 30
CCOC(=O)CC(SP(=S)(OC)OC)C(=O)OCC (stereo not drawn) [Compound (2), O,O-dimethyl S-[1,2-di-(ethoxycarbonyl)ethyl]-phosphorodithioate]	145 (≈ 439 µM)	–	–
COP(=S)(OC)Oc1ccc(C#N)cc1 [Compound (3), O,O-dimethyl O-(4-cyanophenyl)phosphorothioate]	28 (≈ 115 µM)	–	1 to 50
CCOC(=O)C(SP(=S)(OC)OC)c1ccccc1 (stereo not drawn) [Compound (4), O,O-dimethyl S-[α-(ethoxycarbonyl)benzyl]-phosphorodithioate]	4 (≈ 12.5 µM)	–	–
